# Assays:
# Test in all cases: relative viability (nuclei count vs DMSO), 5 days (fraction); higher = more cells survive
# NCI-H1975 = system: NCI-H1975
# In short: (§1)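 Lung cancer cell lines in 1536-well plates were dosed by pin tool the day after seeding, either with one drug alone or with a fixed anchor-drug dose plus five library-drug doses (not always all listed) in √10 steps. After 5 days, cells were fixed and their nuclei stained in one step (final 0.05% Triton X-100, 1% formaldehyde, 1 ug/ml Hoechst), then counted on 4× images. Relative viability is the nuclei count in treated wells divided by that in vehicle wells. Values are medians of duplicate plates.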
# NCI-H1563 = system: NCI-H1563
# In short: as §1
# NCI-H596 = system: NCI-H596
# In short: as §1
# LOU-NH91 = system: LOU-NH91
# In short: as §1
# EMC-BAC-2 = system: EMC-BAC-2
# In short: as §1
# PC-3 [JPC-3] = system: PC-3 [JPC-3]
# In short: as §1
# LK-2 = system: LK-2
# In short: as §1
# A-427 = system: A-427
# In short: as §1
# SW 900 = system: SW 900
# In short: as §1
# NCI-H1755 = system: NCI-H1755
# In short: as §1
# NCI-H23 = system: NCI-H23
# In short: as §1
# NCI-H520 = system: NCI-H520
# In short: as §1
# NCI-H441 = system: NCI-H441
# In short: as §1
# EKVX = system: EKVX
# In short: as §1
# NCI-H1666 = system: NCI-H1666
# In short: as §1
# SK-MES-1 = system: SK-MES-1
# In short: as §1
# COR-L 105 = system: COR-L 105
# In short: as §1
# NCI-H2170 = system: NCI-H2170
# In short: as §1
# ChaGo-K-1 = system: ChaGo-K-1
# In short: as §1
# NCI-H1734 = system: NCI-H1734
# In short: as §1
# HCC-366 = system: HCC-366
# In short: as §1
# H3255 = system: H3255
# In short: as §1
structure (smiles),measurement,setting,value
CC(=O)O[C@@]12CO[C@@H]1C[C@H](O)[C@@]1(C)C(=O)[C@H](O)C3=C(C)[C@@H](OC(=O)[C@H](O)[C@@H](NC(=O)OC(C)(C)C)c4ccccc4)C[C@@](O)([C@@H](OC(=O)c4ccccc4)[C@H]21)C3(C)C [Docetaxel] + N=C(N)NC(=N)NCCc1ccccc1 [Phenformin] (partner 250 µM),relative viability,NCI-H1975; first compound 0.0002 µM,0.406
same,relative viability,NCI-H1975; first compound 0.000632 µM,0.334
same,relative viability,NCI-H1975; first compound 0.002 µM,0.209
same,relative viability,NCI-H1975; first compound 0.006325 µM,0.148
same,relative viability,NCI-H1975; first compound 0.02 µM,0.134
same,relative viability,NCI-H1563; first compound 0.0002 µM,0.619
same,relative viability,NCI-H1563; first compound 0.000632 µM,0.683
same,relative viability,NCI-H1563; first compound 0.002 µM,0.661
same,relative viability,NCI-H1563; first compound 0.006325 µM,0.582
same,relative viability,NCI-H1563; first compound 0.02 µM,0.479
same,relative viability,NCI-H596; first compound 0.0002 µM,0.827
same,relative viability,NCI-H596; first compound 0.000632 µM,0.773
same,relative viability,NCI-H596; first compound 0.002 µM,0.635
same,relative viability,NCI-H596; first compound 0.006325 µM,0.438
same,relative viability,NCI-H596; first compound 0.02 µM,0.235
same,relative viability,LOU-NH91; first compound 0.0002 µM,0.661
same,relative viability,LOU-NH91; first compound 0.000632 µM,0.625
same,relative viability,LOU-NH91; first compound 0.002 µM,0.41
same,relative viability,LOU-NH91; first compound 0.006325 µM,0.317
same,relative viability,LOU-NH91; first compound 0.02 µM,0.269
same,relative viability,EMC-BAC-2; first compound 0.0002 µM,0.509
same,relative viability,EMC-BAC-2; first compound 0.000632 µM,0.412
same,relative viability,EMC-BAC-2; first compound 0.002 µM,0.306
same,relative viability,EMC-BAC-2; first compound 0.006325 µM,0.278
same,relative viability,EMC-BAC-2; first compound 0.02 µM,0.177
same,relative viability,PC-3 [JPC-3]; first compound 0.0002 µM,0.484
same,relative viability,PC-3 [JPC-3]; first compound 0.000632 µM,0.48
same,relative viability,PC-3 [JPC-3]; first compound 0.002 µM,0.371
same,relative viability,PC-3 [JPC-3]; first compound 0.006325 µM,0.246
same,relative viability,PC-3 [JPC-3]; first compound 0.02 µM,0.138
same,relative viability,LK-2; first compound 0.0002 µM,0.369
same,relative viability,LK-2; first compound 0.000632 µM,0.27
same,relative viability,LK-2; first compound 0.002 µM,0.118
same,relative viability,LK-2; first compound 0.006325 µM,0.153
same,relative viability,LK-2; first compound 0.02 µM,0.124
same,relative viability,A-427; first compound 0.0002 µM,0.324
same,relative viability,A-427; first compound 0.000632 µM,0.328
same,relative viability,A-427; first compound 0.002 µM,0.165
same,relative viability,A-427; first compound 0.006325 µM,0.149
same,relative viability,A-427; first compound 0.02 µM,0.12
same,relative viability,SW 900; first compound 0.0002 µM,0.389
same,relative viability,SW 900; first compound 0.000632 µM,0.235
same,relative viability,SW 900; first compound 0.002 µM,0.262
same,relative viability,SW 900; first compound 0.006325 µM,0.167
same,relative viability,SW 900; first compound 0.02 µM,0.0976
same,relative viability,NCI-H1755; first compound 0.0002 µM,0.621
same,relative viability,NCI-H1755; first compound 0.000632 µM,0.577
same,relative viability,NCI-H1755; first compound 0.002 µM,0.411
same,relative viability,NCI-H1755; first compound 0.006325 µM,0.434
same,relative viability,NCI-H1755; first compound 0.02 µM,0.36
same,relative viability,NCI-H23; first compound 0.0002 µM,0.801
same,relative viability,NCI-H23; first compound 0.000632 µM,0.702
same,relative viability,NCI-H23; first compound 0.002 µM,0.475
same,relative viability,NCI-H23; first compound 0.006325 µM,0.2
same,relative viability,NCI-H23; first compound 0.02 µM,0.121
same,relative viability,NCI-H520; first compound 0.0002 µM,0.585
same,relative viability,NCI-H520; first compound 0.000632 µM,0.604
same,relative viability,NCI-H520; first compound 0.002 µM,0.37
same,relative viability,NCI-H520; first compound 0.006325 µM,0.255
same,relative viability,NCI-H520; first compound 0.02 µM,0.148
same,relative viability,NCI-H441; first compound 0.0002 µM,0.833
same,relative viability,NCI-H441; first compound 0.000632 µM,0.889
same,relative viability,NCI-H441; first compound 0.002 µM,0.315
same,relative viability,NCI-H441; first compound 0.006325 µM,0.281
same,relative viability,NCI-H441; first compound 0.02 µM,0.197
same,relative viability,EKVX; first compound 0.0002 µM,0.264
same,relative viability,EKVX; first compound 0.000632 µM,0.218
same,relative viability,EKVX; first compound 0.002 µM,0.191
same,relative viability,EKVX; first compound 0.006325 µM,0.149
same,relative viability,EKVX; first compound 0.02 µM,0.137
same,relative viability,NCI-H1666; first compound 0.0002 µM,0.47
same,relative viability,NCI-H1666; first compound 0.000632 µM,0.515
same,relative viability,NCI-H1666; first compound 0.002 µM,0.537
same,relative viability,NCI-H1666; first compound 0.006325 µM,0.382
same,relative viability,NCI-H1666; first compound 0.02 µM,0.337
same,relative viability,SK-MES-1; first compound 0.0002 µM,0.664
same,relative viability,SK-MES-1; first compound 0.000632 µM,0.667
same,relative viability,SK-MES-1; first compound 0.002 µM,0.364
same,relative viability,SK-MES-1; first compound 0.006325 µM,0.273
same,relative viability,SK-MES-1; first compound 0.02 µM,0.179
same,relative viability,COR-L 105; first compound 0.0002 µM,0.431
same,relative viability,COR-L 105; first compound 0.000632 µM,0.392
same,relative viability,COR-L 105; first compound 0.002 µM,0.279
same,relative viability,COR-L 105; first compound 0.006325 µM,0.267
same,relative viability,COR-L 105; first compound 0.02 µM,0.247
same,relative viability,NCI-H2170; first compound 0.0002 µM,0.405
same,relative viability,NCI-H2170; first compound 0.000632 µM,0.428
same,relative viability,NCI-H2170; first compound 0.002 µM,0.267
same,relative viability,NCI-H2170; first compound 0.006325 µM,0.217
same,relative viability,NCI-H2170; first compound 0.02 µM,0.174
same,relative viability,ChaGo-K-1; first compound 0.0002 µM,0.431
same,relative viability,ChaGo-K-1; first compound 0.000632 µM,0.408
same,relative viability,ChaGo-K-1; first compound 0.002 µM,0.283
same,relative viability,ChaGo-K-1; first compound 0.006325 µM,0.192
same,relative viability,ChaGo-K-1; first compound 0.02 µM,0.149
same,relative viability,NCI-H1734; first compound 0.0002 µM,0.296
same,relative viability,NCI-H1734; first compound 0.000632 µM,0.338
same,relative viability,NCI-H1734; first compound 0.002 µM,0.232
same,relative viability,NCI-H1734; first compound 0.006325 µM,0.221
same,relative viability,NCI-H1734; first compound 0.02 µM,0.168
same,relative viability,HCC-366; first compound 0.0002 µM,0.599
same,relative viability,HCC-366; first compound 0.000632 µM,0.253
same,relative viability,HCC-366; first compound 0.002 µM,0.147
same,relative viability,HCC-366; first compound 0.006325 µM,0.0428
same,relative viability,HCC-366; first compound 0.02 µM,0.0275
same,relative viability,H3255; first compound 0.0002 µM,0.353
same,relative viability,H3255; first compound 0.000632 µM,0.349
same,relative viability,H3255; first compound 0.002 µM,0.312
same,relative viability,H3255; first compound 0.006325 µM,0.357
same,relative viability,H3255; first compound 0.02 µM,0.259
